Assay results: paper PMC7933434, “Entropy-driven binding of gut bacterial β-glucuronidase inhibitors ameliorates irinotecan-induced toxicity” (Communications Biology, 2021)
Entries after “also recorded” stand apart in the source; their conditions may differ.

Experiments:
[1] = test system: H184B5F5/M10 non-cancerous human mammary epithelial cells; assay: In vitro cytotoxicity, [3H]thymidine incorporation, H184B5F5/M10; format: cell-based; details: 0.001–100 μM for 24 h
[2] = test system: intestinal bacterial GUSs; assay: In vivo imaging of GUS activity (FDGiCu probe); design: species or system mouse; details: BALB/c mice; oral gavage of inhibitor, then 500 µg FDGiCu intravenously
Experimental: . […] The mice were then sacrificed and the intestines removed. […] In addition, we performed real-time in vivo gastrointestinal inhibition of bacterial GUSs using whole-body in vivo imaging (Fig. 4a and Supplementary Figs. 11, 12). The mice were gavaged in the same manner as described above. Following the final gavage, 500 µg of FDGiCu (fluorescein-di-β-D-glucuronide as a non-fluorescent probe) was injected intravenously. Upon digestion by intestinal bacterial GUSs, FDGiCu is hydrolyzed to produce fluorescein (as the hydrolyzed product) that can be detected as fluorescence in the intestinal region. […]. Mice were treated for 10 days. […]
Mice were given 3 via oral gavage. […] The hydrolysis product (fluorescein) generated in the gut was quantified over a 2 h period by in vivo imaging (excitation 465 nm, emission 520 nm). The maximum fluorescein fluorescence was observed 60 min after injection of vehicle control. At 2 h post injection, most of the FDGiCu has been excreted and thus fluorescence is reduced. The region of interest (ROI) was analyzed with Living Image Software. b Effect of inhibitor 3 to protect against diarrhea caused by CPT-11. Diarrhea severity was scored as described in methods. […] The intensity of hydrolyzed fluorescein was assessed by in vivo imaging system (Caliper Life Sciences) and quantified as GUS activity. […]

BALB/c mice = assay: In vivo diarrhea test (CPT-11); design: species or system mouse; details: BALB/c mice, 10 days

CCCCCC[C@@H]1NC[C@@H](O)[C@H](O)[C@H]1C(=O)O [Inhibitor 3, C6-hexyl UIFG]
cytotoxicity [1]: No cytotoxicity was evident | fluorescein fluorescence in the intestinal region (gut bacterial GUS activity) [2]: Reduced fluorescence | diarrhea (BALB/c mice; CPT-11 30 mg per kg daily with inhibitor 3 5.8 µg orally twice per day): diarrhea was significantly suppressed; also recorded: significantly reduced diarrhea | diarrhea (BALB/c mice; inhibitor 3 only, 5.8 µg given orally twice per day): neither the negative control nor inhibitor 3 caused diarrhea
